Molecular target: T1, KLHL37 (Homo sapiens, UniProt O14682)
T1 construct: gene ENC1; recombinant KLHL37-His (full-length cDNA, pET-28a, E. coli)
T1 sequence (O14682 1-589): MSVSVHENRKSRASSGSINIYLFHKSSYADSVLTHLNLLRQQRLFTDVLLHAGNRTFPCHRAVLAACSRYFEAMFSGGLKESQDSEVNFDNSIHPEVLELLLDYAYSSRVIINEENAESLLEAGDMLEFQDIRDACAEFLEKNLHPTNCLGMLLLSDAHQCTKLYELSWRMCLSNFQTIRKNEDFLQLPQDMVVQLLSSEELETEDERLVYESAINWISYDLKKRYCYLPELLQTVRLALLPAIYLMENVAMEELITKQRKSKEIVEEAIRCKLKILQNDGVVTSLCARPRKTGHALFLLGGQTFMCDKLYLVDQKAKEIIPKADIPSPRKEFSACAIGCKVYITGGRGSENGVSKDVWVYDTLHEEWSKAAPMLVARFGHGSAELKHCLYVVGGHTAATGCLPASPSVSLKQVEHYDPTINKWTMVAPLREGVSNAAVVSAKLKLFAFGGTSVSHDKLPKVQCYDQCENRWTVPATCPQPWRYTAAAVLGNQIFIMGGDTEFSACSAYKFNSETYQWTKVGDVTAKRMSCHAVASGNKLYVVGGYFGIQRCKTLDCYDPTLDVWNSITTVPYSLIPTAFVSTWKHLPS
Assay: SPR (Biacore X100, KLHL37-His immobilized on CM5 chip)
Format: binding

## CC1(C)CC[C@]2(NC(=O)C(C)(F)F)CC[C@]3(C)[C@H](C(=O)C=C4[C@@]5(C)C=C(C#N)C(=O)C(C)(C)[C@@H]5CC[C@]43C)[C@@H]2C1 [RTA-408]
  Kd: 15.2 µM

Reference: publication PMC12259267, “Disruption of the KLHL37–N-Myc complex restores N-Myc degradation and arrests neuroblastoma growth in mouse models” (The Journal of Clinical Investigation, 2025)
